Test results: patent US8158635B2, “Solid forms comprising 4-[9-(tetrahydro-furan-3-yl)-8-(2,4,6-trifluoro-phenylamino)-9H-purin-2-ylamino]-cyclohexan-1-ol, compositions thereof, and uses therewith” (Signal Pharmaceuticals, LLC, priority 2006, dated 2012)

Assay: Equilibration of solid form in solvent for 4 weeks at 40° C., resulting form by XRPD
Format: physicochemical
Experimental: Equilibration slurry and evaporation experiments were carried out by adding an excess of Compound I free base or HCl salt to 2 mL of solvent. […] Upon reaching equilibrium, the saturated supernatant solution was removed and allowed to evaporate slowly in an open vial under nitrogen at 25° C. or 50° C., respectively. The slurry resulting from the equilibration was filtered and air-dried. X-ray powder diffraction (XRPD) measurements were performed in accordance with United States Pharmacopeia (USP) monograph <941> entitled “X-ray Diffraction” (See, e.g., The United States Pharmacopeia, The National Formulary, 2003, The Unites States Pharmacopeial Convention, Inc., Rockville, Md., 2002, which is herein incorporated by reference in its entirety). A Thermo ARL X'TRA X-ray powder diffractometer (Thermo Electron Corp., Waltham, Mass.), equipped with Nickel-filtered Cu Kα radiation at 1.54 Å, was used for XRPD measurements from about 1.5 °2θ to about 40 °2θ, with a step size of about 0.020°, a count time of about 0.50 seconds per step, and a step scan rate of about 2.40°/min. The instrument was equipped with a fine focus X-ray tube. The voltage and amperage were set at 45 kV and 40 mA, respectively. The divergence slits were set at 0.5 mm and 0.2 mm. Diffracted radiation was measured using a Peltier-cooled Si (Li) solid-state detector. Representative XRPD patterns were presented displaying intensity (counts per second) versus position (°2θ). A sintered alumina standard was used to check peak positions. Peak positions may vary from sample to sample by approximately ±0.1 °2θ. Variation in peak position may depend upon multiple factors, including particle size, sample preparation, data collection temperature and parameters. Variation in peak intensity may occur, e.g., as a result of preferred orientation and/or variation in crystal habit.

- Resulting Form by XRPD (Equilibrate Form A in 2-Propanol for 4 weeks at 40° C.): Compound I Free Base Form A
- Resulting Form by XRPD (Equilibrate Form A in Acetone for 4 weeks at 40° C.): Compound I Free Base Form A
- Resulting Form by XRPD (Equilibrate Form A in Acetonitrile for 4 weeks at 40° C.): Compound I Free Base Form A
- Resulting Form by XRPD (Equilibrate Form A in Ethyl acetate for 4 weeks at 40° C.): Compound I Free Base Form A
- Resulting Form by XRPD (Equilibrate Form A in Heptane for 4 weeks at 40° C.): Compound I Free Base Form A
- Resulting Form by XRPD (Equilibrate Form A in MTBE for 4 weeks at 40° C.): Compound I Free Base Form A
- Resulting Form by XRPD (Equilibrate Form A in Toluene for 4 weeks at 40° C.): Compound I Free Base Form A
- Resulting Form by XRPD (Equilibrate Form A in Water for 4 weeks at 40° C.): Compound I Free Base Form A
Structure (SMILES): O[C@H]1CC[C@H](Nc2ncc3nc(Nc4c(F)cc(F)cc4F)n([C@H]4CCOC4)c3n2)CC1 (stereo in doubt) [Form A of the Free Base of Compound I, 4-[9-(tetrahydro-furan-3-yl)-8-(2,4,6-trifluoro-phenylamino)-9H-purin-2-ylamino]-cyclohexan-1-ol]
